Source: patent US11225474B2, “Crystalline salt forms of 3-(1,2,4-triazolo[4,3-a]pyridine-3-ylethynyl)-4-methyl-N-(4-((4-methylpiperazin-1-yl)methyl)-3-trifluoromethylphenyl)benzamide for medical application” (priority 2016, dated 2022)
Where two headings read alike, the source gives them in different places.

How the values were obtained:
mice = test: Acute toxicity studies, mice; assay type: in vivo
rats = test: Acute toxicity studies, rats; assay type: in vivo
Bcr-Abl (E255K) = Bcr-Abl (E255K) (Homo sapiens, UniProt P00519, E255K, form not given); test: Bcr-Abl tyrosine kinase enzyme activity
CYP2D6 = CYP2D6 (Homo sapiens, UniProt P10635); test: Metabolism study using cytochrome enzyme drugs; assay type: in vitro ADME; conditions: 2D6
CYP3A4 = CYP3A4 (Homo sapiens, UniProt P08684); test: Metabolism study using cytochrome enzyme drugs; assay type: in vitro ADME
CD-1 line mice males = test: Acute toxicity, oral route, mice; conditions: for LD10 / LD90: oral, male CD-1 mice
Text: (§1) For each drug dose study a group of six animals was used. The study included control groups with the same animal headcount, which received equivalent solvent doses of a 0.5% water solution of methylcellulose. The follow-up period was 28 days. Lab mouse survivability analysis allowed carrying out Bliss analysis and determining the lethal doses of the studied drugs.

[1] = Acute toxicity, oral route, mice; conditions: male, CD-1, mouse, in vivo, po, LD50, oral, male CD-1 mice
Text: as §1

Drosophila melanogaster = test: Gene toxicity: induced somatic mosaicism; assay type: in vivo; conditions: all doses tested
physchem [2] = conditions: deionized water, thermodynamic from solid, Equilibrium solubility, HPLC analysis
Bcr-Abl = Bcr-Abl (Homo sapiens, UniProt P00519); test: Bcr-Abl tyrosine kinase enzyme activity
HCT116 line cells = conditions: oral, 25 mg/kg (21 mg/kg as free base), 20 days
Protocol: To induce pathology, HCT116 line cells were used. Cells in the amount of 200 μL (2.5×10^7 cells/mL) were subcutaneously injected to the right side of thymus-deprived female mice (SCID). […] To determine the efficacy of tumor growth inhibition upon completion of treatment (20 days), the average size ratio was calculated between the therapeutic/control groups (% T/C).

RAF1 = RAF1 (Homo sapiens, UniProt P04049); test: Human kinase panel at 100 nM; assay type: biochemical
physchem [3] = assay type: physicochemical
Bcr-Abl (Y253F) = Bcr-Abl (Y253F) (Homo sapiens, UniProt P00519, Y253F, form not given); test: Bcr-Abl tyrosine kinase enzyme activity
Bcr-Abl (F317I) = Bcr-Abl (F317I) (Homo sapiens, UniProt P00519, F317I, form not given); test: Bcr-Abl tyrosine kinase enzyme activity
murine marrow cells = test: Gene toxicity: metaphase chromosome aberration assay; assay type: in vivo; conditions: all doses tested
EPHB2 = EPHB2 (Homo sapiens, UniProt P29323); test: Human kinase panel at 100 nM; assay type: biochemical
CYP2B6 = CYP2B6 (Homo sapiens, UniProt P20813); test: Metabolism study using cytochrome enzyme drugs; assay type: in vitro ADME; conditions: 2B6
SupB15 = test: Cytotoxicity, Ph+ ALL model cell line; assay type: cell-based; conditions: Homo sapiens, SUP-B15, read-out: IC50 (toxicity)
CYP1A2 = CYP1A2 (Homo sapiens, UniProt P05177); test: Metabolism study using cytochrome enzyme drugs; assay type: in vitro ADME
MDA-MB-468 = test: Cytotoxicity, breast cancer line; assay type: cell-based, human
[4] = MTD at a single administration to dogs; conditions: dog, in vivo
Protocol: The MTD of the drug at a single administration to dogs was 45 mg/kg (38 mg/kg calculated as a free base).

[5] = Drug distribution in rat tissues; assay type: in vivo
BLK = BLK (Homo sapiens, UniProt P51451); test: Human kinase panel at 100 nM; assay type: biochemical
FYN = FYN (Homo sapiens, UniProt P06241); test: Human kinase panel at 100 nM; assay type: biochemical
Bcr-Abl (G250E) = Bcr-Abl (G250E) (Homo sapiens, UniProt P00519, G250E, form not given); test: Bcr-Abl tyrosine kinase enzyme activity
PDGFRb = PDGFRb (Homo sapiens, UniProt P09619); test: Human kinase panel at 100 nM; assay type: biochemical
Bcr-Abl (T315I) = Bcr-Abl (T315I) (Homo sapiens, UniProt P00519, T315I, form not given); test: Bcr-Abl tyrosine kinase enzyme activity; conditions: 3 independent experiments
SKOV-3 = test: Cytotoxicity, ovarian cancer line; assay type: cell-based, human
K562 line cells = test: Xenograft chronic leukemia model; assay type: in vivo, thymus-deprived mice; conditions: oral, 14 days, follow-up 240 days
Text: The therapy was started after the size of the tumor had reached 500 mm^3, therapy duration was 14 days, the follow-up period was 240 days.

[6] = system: Sca1+ marrow cells, expressing p185-T315I^BCR/ABL; test: BCR/ABL-induced chronic myelogenous leukemia model; assay type: in vivo, C57BL/6N line mice; conditions: for Average life: oral, control 55.0 ± 6.3
Protocol: To assess the efficacy of the free base and methanesulfonic acid salt of 3-(1,2,4-triazolo[4,3-a]pyridine-3-ylethynyl)-4-methyl-N-(4-((4-methylpiperazine-1-yl)methyl)-3-trifluoromethylphenyl)benzamide for treating chronic myelogenous leukemia (CML) studies of the compounds' activity on the BCR/ABL-induced CML-like disease in mice were conducted. In the study C57BL/6N line mice were used. […] The efficacy of therapy with 3-(1,2,4-triazolo[4,3-a]pyridine-3-ylethynyl)-4-methyl-N-(4-((4-methylpiperazine-1-yl)methyl)-3-trifluoromethylphenyl)benzamide administered orally as a free base and methanesulfonic acid salt was studied.

[7] = dose of the substance administered

FYN, sequence (P06241 whole entry): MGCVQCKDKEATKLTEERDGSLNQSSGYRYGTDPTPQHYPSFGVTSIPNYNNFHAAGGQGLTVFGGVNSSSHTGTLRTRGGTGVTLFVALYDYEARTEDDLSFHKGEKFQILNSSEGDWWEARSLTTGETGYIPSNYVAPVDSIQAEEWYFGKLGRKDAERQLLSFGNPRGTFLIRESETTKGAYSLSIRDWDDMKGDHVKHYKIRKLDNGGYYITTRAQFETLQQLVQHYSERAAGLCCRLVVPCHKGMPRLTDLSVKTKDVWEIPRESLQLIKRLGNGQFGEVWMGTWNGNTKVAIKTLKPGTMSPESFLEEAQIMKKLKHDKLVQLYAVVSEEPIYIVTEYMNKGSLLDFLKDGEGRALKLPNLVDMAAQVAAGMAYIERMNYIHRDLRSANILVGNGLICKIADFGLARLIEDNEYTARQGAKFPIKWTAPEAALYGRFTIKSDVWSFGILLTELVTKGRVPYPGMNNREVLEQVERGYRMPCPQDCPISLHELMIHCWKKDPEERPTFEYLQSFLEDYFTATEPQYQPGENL
CYP3A4, sequence (P08684 whole entry): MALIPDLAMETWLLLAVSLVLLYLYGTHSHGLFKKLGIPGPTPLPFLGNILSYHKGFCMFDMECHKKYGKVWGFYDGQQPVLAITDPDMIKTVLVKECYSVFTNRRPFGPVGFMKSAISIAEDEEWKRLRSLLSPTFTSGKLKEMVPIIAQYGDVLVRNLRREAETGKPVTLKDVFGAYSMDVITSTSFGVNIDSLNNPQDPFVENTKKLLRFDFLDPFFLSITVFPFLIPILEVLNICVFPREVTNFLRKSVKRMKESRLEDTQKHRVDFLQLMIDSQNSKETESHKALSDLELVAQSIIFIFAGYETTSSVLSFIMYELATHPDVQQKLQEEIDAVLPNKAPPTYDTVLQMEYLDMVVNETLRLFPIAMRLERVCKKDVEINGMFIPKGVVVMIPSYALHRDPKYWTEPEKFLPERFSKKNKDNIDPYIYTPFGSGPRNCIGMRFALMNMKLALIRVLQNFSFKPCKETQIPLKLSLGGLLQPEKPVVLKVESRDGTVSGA
CYP2D6, sequence (P10635 whole entry): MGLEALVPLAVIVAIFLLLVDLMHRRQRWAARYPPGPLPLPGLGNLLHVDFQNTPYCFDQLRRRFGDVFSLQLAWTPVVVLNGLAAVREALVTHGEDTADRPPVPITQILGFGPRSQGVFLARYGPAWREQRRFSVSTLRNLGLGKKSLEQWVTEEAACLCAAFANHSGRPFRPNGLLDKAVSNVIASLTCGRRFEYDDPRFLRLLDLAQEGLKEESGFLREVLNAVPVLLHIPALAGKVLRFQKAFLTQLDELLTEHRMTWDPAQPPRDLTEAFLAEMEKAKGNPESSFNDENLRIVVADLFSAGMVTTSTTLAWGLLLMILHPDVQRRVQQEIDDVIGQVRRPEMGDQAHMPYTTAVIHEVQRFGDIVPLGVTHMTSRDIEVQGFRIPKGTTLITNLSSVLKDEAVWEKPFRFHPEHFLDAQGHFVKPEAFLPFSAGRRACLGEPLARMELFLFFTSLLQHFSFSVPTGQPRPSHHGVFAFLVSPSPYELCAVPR
CYP2B6, sequence (P20813 whole entry): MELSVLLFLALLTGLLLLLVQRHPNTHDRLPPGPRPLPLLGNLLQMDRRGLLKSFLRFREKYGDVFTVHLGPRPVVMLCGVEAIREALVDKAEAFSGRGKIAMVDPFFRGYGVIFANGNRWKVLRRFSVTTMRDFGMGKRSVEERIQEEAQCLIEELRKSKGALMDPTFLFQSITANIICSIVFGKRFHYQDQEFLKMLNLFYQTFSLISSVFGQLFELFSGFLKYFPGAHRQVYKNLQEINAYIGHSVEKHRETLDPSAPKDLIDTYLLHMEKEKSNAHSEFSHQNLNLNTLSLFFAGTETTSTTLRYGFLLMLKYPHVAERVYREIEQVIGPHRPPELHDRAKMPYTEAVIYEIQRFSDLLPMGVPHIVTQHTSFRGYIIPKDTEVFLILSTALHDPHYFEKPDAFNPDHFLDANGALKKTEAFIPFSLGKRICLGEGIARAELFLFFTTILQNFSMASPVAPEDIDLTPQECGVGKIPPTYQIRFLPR
RAF1, sequence (P04049 whole entry): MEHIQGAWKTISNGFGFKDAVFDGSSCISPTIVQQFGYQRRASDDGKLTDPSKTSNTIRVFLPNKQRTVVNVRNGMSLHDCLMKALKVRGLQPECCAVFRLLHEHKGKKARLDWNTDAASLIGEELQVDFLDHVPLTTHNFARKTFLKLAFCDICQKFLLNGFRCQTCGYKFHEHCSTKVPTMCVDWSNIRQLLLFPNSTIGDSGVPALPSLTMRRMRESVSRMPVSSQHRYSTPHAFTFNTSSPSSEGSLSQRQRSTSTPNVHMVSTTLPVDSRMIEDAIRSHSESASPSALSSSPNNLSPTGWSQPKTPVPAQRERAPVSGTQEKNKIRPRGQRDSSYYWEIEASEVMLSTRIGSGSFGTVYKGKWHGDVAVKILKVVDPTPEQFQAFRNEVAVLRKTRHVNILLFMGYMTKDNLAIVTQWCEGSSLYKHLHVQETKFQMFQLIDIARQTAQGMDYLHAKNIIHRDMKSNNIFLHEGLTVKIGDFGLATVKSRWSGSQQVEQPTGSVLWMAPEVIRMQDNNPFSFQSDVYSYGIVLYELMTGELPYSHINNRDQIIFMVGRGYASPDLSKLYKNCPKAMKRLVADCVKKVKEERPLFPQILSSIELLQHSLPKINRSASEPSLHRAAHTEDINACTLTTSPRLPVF
CYP1A2, sequence (P05177 whole entry): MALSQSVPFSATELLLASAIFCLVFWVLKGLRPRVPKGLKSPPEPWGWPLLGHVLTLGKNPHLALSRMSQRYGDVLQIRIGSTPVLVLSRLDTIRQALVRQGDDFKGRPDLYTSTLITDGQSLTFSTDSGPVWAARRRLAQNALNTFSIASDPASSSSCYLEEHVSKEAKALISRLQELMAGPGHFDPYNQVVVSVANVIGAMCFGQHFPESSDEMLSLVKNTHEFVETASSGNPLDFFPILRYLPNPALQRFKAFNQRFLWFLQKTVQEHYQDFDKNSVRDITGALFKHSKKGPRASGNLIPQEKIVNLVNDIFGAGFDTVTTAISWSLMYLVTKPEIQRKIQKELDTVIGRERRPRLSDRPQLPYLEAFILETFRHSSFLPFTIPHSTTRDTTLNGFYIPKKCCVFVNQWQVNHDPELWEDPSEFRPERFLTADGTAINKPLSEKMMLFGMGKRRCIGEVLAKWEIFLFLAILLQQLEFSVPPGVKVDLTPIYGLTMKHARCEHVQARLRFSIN
PDGFRb, sequence (P09619 33-1106): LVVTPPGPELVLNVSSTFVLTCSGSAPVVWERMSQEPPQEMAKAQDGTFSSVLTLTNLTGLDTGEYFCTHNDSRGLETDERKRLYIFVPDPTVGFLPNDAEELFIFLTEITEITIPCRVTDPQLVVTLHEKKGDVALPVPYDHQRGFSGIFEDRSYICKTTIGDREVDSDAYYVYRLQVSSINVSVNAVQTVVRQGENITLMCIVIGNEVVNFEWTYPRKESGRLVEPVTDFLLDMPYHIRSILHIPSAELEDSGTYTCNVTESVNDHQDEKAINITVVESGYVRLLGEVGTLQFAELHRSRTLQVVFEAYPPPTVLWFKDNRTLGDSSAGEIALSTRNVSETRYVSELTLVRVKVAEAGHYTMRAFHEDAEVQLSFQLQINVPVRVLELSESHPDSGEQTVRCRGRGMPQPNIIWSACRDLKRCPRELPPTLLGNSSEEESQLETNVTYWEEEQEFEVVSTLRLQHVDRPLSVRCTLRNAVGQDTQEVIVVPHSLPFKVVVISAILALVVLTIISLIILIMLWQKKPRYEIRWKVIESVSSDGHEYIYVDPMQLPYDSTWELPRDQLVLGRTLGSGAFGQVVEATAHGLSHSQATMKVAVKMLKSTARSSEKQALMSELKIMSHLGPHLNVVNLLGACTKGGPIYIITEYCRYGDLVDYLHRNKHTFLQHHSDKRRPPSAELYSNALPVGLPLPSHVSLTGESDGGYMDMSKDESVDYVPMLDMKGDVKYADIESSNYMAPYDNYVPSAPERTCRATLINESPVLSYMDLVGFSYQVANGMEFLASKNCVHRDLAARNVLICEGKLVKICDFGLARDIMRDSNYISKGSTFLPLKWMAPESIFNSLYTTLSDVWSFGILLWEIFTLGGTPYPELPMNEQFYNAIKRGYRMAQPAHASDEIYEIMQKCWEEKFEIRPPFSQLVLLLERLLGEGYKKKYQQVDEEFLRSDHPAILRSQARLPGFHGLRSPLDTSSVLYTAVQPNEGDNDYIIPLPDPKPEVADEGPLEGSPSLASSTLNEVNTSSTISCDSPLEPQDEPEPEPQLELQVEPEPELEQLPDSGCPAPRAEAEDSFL
BLK, sequence (P51451 whole entry): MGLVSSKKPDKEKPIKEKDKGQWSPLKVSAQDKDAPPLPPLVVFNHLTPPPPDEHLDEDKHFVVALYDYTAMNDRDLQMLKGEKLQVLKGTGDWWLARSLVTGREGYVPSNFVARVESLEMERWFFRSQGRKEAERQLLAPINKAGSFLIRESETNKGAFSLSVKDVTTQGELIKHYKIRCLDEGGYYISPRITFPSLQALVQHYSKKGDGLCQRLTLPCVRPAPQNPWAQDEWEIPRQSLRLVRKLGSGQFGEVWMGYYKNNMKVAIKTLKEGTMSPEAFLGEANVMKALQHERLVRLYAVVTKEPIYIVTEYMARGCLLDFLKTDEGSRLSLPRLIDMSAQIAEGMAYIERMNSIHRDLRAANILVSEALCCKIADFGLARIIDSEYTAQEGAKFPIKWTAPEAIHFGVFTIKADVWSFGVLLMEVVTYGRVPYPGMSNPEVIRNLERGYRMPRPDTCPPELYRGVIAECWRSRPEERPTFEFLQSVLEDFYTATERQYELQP

**Q.** Which results are given for CS(=O)(=O)O.Cc1ccc(C(=O)Nc2ccc(CN3CCN(C)CC3)c(C(F)(F)F)c2)cc1C#Cc1nnc2ccccn12 [methanesulfonic acid salt, 3-(1,2,4-triazolo[4,3-a]pyridine-3-ylethynyl)-4-methyl-N-(4-((4-methylpiperazin-1-yl)methyl)-3-trifluoromethylphenyl)benzamide mono methanesulfonic acid salt]?
**A.** LD10 (mice; calculated as the free base): 678 mg/kg; LD10 (mice; dose of the salt): 800 mg/kg; LD10 (rats; calculated as a free base): 1,695 mg/kg; LD10 (rats; dose of the salt): 2,000 mg/kg; IC50 (Bcr-Abl (E255K)): 9.5 nM; participation of the isoform in metabolism (CYP2D6): does not involve; participation of the isoform in metabolism (CYP3A4): involves participation; signs of animal intoxication (CD-1 line mice males; mouse, in vivo, po): dyspnea, hypodynamia, tumbled fur, diarrhea, bloating, in some animals—focal alopecia; LD10 (CD-1 line mice males; calculated as a free base): (508*) mg/kg; LD90 (CD-1 line mice males; calculated as a free base): (1,864*) mg/kg; LD10 (CD-1 line mice males; [7]): 600 mg/kg; LD90 (CD-1 line mice males; [7]): 2,200 mg/kg; LD50 at 28 days ([1]; calculated as a free base): 1190 mg/kg; LD50 at 28 days [1, 7]: 1400 mg/kg; genotoxic effects (Drosophila melanogaster): had no genotoxic effects; solubility thermodynamic (physchem [2]): > 100 mg/mL; IC50 (Bcr-Abl): 0.49 to 3.1 nM; T/C (average tumor size ratio therapeutic/control) (HCT116 line cells): < 35%; inhibition at 0.1 µM (RAF1): > 50%; Apparent solubility (physchem [3]): >46 mg/mL; solubility (physchem [3]; deionized water, RT, read-out: Apparent solubility): > 46 mg/mL; IC50 (Bcr-Abl (Y253F)): 4.1 nM; IC50 (Bcr-Abl (F317I)): 2 nM; genotoxic effects (murine marrow cells): had no genotoxic effects; inhibition at 0.1 µM (EPHB2): > 50%; participation of the isoform in metabolism (CYP2B6): does not involve; IC50 (SupB15): 50 nM; participation of the isoform in metabolism (CYP1A2): does not involve; cytotoxicity (MDA-MB-468): showed cytotoxicity; MTD ([4]; calculated as a free base): 38 mg/kg; MTD ([4]; dose of the salt): 45 mg/kg; Kp ([5]; bone marrow, read-out: concentration in bone marrow relative to plasma): 27; Kp ([5]; brain, read-out: exposure in brain relative to blood plasma exposure): ~0.2; Kp ([5]; kidneys, read-out: concentration in kidneys relative to plasma): 34; Kp ([5]; liver, read-out: concentration in liver relative to plasma): 21; Kp ([5]; lungs, read-out: concentration in lungs relative to blood plasma): ~71; Kp ([5]; spleen, read-out: concentration in spleen relative to plasma): 45; inhibition at 0.1 µM (BLK): > 50%; inhibition at 0.1 µM (FYN): > 50%; IC50 (Bcr-Abl (G250E)): 7.4 nM; Equilibrium solubility (deionized water, HPLC analysis, listed as HAL-G-196-20): >100 mg/mL; pH (equilibrium solubility test in water): 3.6; Crystallinity in 24 h (solid in water, equilibrium solubility test): Dissolution; solubility relative to the free base (water): 10,000 fold; inhibition at 0.1 µM (PDGFRb): > 50%; IC50 (Bcr-Abl (T315I)): 0.78 to 21 nM; cytotoxicity (SKOV-3): showed cytotoxicity; effect on the tumor size (K562 line cells; 25 mg/kg (21 as free base) per day): decrease of the tumor size to an immeasurable size with subsequent proliferation after the 35th day of follow-up; effect on the tumor size (K562 line cells; 40 mg/kg (34 as free base) per day): elimination of the tumor without relapse during all 240 days of follow-up in all mice; therapeutic effect compared with the free base ([6]; 40 mg/kg (34 mg/kg as free base)): same therapeutic effect as administration of 50 mg/kg of a free base; increase of animals' lives compared to the control group ([6]; 59 mg/kg (50 mg/kg as free base)): almost two-fold increase; Average life ([6]; 10 mg/kg salt (8.5 as free base)): 65.5 ± 6.7 days; Average life ([6]; 25 mg/kg salt (21 as free base)): 73.9 ± 7.1 days; Average life ([6]; 40 mg/kg salt (34 as free base)): 90.3 ± 6.9 days; Average life ([6]; 59 mg/kg salt (50 as free base)): 104.5 ± 5.2 days
